Assay results published in paper PMC6204372, “An RORγt Oral Inhibitor Modulates IL-17 Responses in Peripheral Blood and Intestinal Mucosa of Crohn's Disease Patients” (Frontiers in Immunology, 2018).

Target: T1, RORγ (RORγt) ligand-binding domain (Homo sapiens, UniProt P51449)
T1 construct: gene RORC
T1 sequence (P51449 265-507 limits assumed): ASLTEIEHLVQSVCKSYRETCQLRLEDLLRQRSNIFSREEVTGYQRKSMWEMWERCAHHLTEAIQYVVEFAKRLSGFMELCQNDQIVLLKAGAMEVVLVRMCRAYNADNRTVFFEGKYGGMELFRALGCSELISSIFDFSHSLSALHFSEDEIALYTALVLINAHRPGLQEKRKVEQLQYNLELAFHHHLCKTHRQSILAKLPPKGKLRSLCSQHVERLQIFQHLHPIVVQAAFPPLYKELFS
Test: Kd for human RORγ LBD (binding method not stated); also RORγ LBD reporter assay IC50 […]

BI119
Kd: 65 nM
